{"source": "patent US4624695A", "about": "“O-diaminophosphinyl derivatives of oximes as urease inhibitors” (Allied Corporation, priority 1983, dated 1986)", "system": "soil urease", "assay": "Efficacy test: urease inhibition in soil (urea remaining after incubation)", "format": "biochemical", "settings": "800 micrograms test compound and 42.8 mg urea per 20 g air-dry soil, incubated at 25° C. for three days, run in triplicate", "experimental": "Efficacy tests were conducted to evaluate the efficacy of certain representative oximated O-diaminophosphinyl compounds as urease inhibitors. The inhibition tests were run in a New York soil (Cazenovia silt loam, pH 7.2) or in Wisconsin soil (Plano silt loam, pH 5.4). Evaluations (run in triplicate) consisted of applying 800 micrograms of the test compound in 5 mL of water and 42.8 mg of urea in 1 mL of water to 20 g of air-dry soil in a glass bottle. The bottle was capped with perforated aluminum foil and incubated at 25° C. for three days prior to extraction with 100 mL of a 2M potassium chloride solution containing 0.5 mg of phenylmercuric acetate. The extracts were then analyzed for remaining urea using an autoanalyzer. Percent inhibition was calculated as [formula] where A is urea recovered from unincubated sample (urea added to soil and immediately extracted); B is urea recovered from inhibited sample; and C is urea recovered from the control (uninhibited sample).", "data": [{"smiles": "CC(C)=NOP(N)(N)=O", "note": "[O--(Diaminophosphinyl)-2-propanone Oxime, O-(Diaminophosphinyl)-2-propanone Oxime]", "values": [{"measurement": "% Inhibition, Cazenovia (pH 7.2)", "setting": "New York soil (Cazenovia silt loam, pH 7.2)", "result": 84, "unit": "%"}, {"measurement": "% Inhibition, Wisconsin (pH 5.4)", "setting": "Wisconsin soil (Plano silt loam, pH 5.4)", "result": 53, "unit": "%"}]}]}
